Measurements published in publication PMC13058460, “PET-MRI biomarkers reveal efficacy of a novel NLRP3 inhibitor in Parkinson’s disease models” (Brain, 2025).
Like-named read-outs stand apart in the source and are kept apart here.

Tests used:
CYP3A4 = CYP3A4 (Homo sapiens, UniProt P08684); assay: CYP3A4 inhibition
Experimental: (§5) LM – Liver microsome (half-life in minutes)
PPB – Plasma Protein Binding
(§6) PS – Plasma Stability (% remaining at 2 hours)

[1] = Mouse liver microsome stability; settings: liver microsomes
Experimental: as §5
PPB – Plasma Protein Binding
as §6

CYP2D6 = CYP2D6 (Homo sapiens, UniProt P10635); assay: CYP2D6 inhibition
Experimental: as §5
PPB – Plasma Protein Binding
as §6

[2] = Human liver microsome stability; settings: liver microsomes
Experimental: as §5
PPB – Plasma Protein Binding
as §6

CYP2C9 = CYP2C9 (Homo sapiens, UniProt P11712); assay: CYP2C9 inhibition
CYP2C9, sequence (P11712 whole entry): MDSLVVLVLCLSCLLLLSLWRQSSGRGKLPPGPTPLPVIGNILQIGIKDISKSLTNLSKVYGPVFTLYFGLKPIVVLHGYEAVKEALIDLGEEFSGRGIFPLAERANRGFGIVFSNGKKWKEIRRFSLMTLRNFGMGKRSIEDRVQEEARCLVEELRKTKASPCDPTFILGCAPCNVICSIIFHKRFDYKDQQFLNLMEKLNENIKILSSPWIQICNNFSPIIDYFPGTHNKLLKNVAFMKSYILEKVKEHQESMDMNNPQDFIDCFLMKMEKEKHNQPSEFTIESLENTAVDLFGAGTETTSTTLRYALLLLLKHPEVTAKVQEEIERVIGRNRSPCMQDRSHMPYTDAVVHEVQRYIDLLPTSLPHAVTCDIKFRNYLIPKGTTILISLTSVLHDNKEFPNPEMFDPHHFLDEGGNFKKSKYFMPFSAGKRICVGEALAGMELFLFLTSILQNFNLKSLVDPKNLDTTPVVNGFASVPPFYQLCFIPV
Experimental: as §5
PPB – Plasma Protein Binding
as §6

CYP1A2 = molecular target: T1, CYP1A2 (Homo sapiens, UniProt P05177); assay: CYP1A2 inhibition
T1 sequence (P05177 1-516): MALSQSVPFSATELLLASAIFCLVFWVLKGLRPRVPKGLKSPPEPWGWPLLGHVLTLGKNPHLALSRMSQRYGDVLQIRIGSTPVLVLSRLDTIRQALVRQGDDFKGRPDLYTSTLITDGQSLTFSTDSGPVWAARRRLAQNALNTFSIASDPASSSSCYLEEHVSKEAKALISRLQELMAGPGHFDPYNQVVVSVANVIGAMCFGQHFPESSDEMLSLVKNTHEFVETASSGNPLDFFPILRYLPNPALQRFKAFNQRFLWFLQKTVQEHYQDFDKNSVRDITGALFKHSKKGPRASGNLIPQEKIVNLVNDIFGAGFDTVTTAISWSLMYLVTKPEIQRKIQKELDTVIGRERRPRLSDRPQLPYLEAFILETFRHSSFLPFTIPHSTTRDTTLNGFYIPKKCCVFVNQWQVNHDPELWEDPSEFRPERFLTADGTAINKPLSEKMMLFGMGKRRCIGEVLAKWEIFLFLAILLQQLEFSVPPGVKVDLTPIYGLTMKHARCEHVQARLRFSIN

Human plasma stability = settings: % remaining at 2 hours
Experimental: as §5
PPB – Plasma Protein Binding
as §6

[3] = Mouse plasma protein binding
Experimental: as §5
PPB – Plasma Protein Binding
as §6

[4] = molecular target: hERG (human ether-a-go-go K+ ion channel) (Homo sapiens, UniProt Q12809); assay: hERG QPatch assay
hERG (human ether-a-go-go K+ ion channel), sequence (Q12809 whole entry): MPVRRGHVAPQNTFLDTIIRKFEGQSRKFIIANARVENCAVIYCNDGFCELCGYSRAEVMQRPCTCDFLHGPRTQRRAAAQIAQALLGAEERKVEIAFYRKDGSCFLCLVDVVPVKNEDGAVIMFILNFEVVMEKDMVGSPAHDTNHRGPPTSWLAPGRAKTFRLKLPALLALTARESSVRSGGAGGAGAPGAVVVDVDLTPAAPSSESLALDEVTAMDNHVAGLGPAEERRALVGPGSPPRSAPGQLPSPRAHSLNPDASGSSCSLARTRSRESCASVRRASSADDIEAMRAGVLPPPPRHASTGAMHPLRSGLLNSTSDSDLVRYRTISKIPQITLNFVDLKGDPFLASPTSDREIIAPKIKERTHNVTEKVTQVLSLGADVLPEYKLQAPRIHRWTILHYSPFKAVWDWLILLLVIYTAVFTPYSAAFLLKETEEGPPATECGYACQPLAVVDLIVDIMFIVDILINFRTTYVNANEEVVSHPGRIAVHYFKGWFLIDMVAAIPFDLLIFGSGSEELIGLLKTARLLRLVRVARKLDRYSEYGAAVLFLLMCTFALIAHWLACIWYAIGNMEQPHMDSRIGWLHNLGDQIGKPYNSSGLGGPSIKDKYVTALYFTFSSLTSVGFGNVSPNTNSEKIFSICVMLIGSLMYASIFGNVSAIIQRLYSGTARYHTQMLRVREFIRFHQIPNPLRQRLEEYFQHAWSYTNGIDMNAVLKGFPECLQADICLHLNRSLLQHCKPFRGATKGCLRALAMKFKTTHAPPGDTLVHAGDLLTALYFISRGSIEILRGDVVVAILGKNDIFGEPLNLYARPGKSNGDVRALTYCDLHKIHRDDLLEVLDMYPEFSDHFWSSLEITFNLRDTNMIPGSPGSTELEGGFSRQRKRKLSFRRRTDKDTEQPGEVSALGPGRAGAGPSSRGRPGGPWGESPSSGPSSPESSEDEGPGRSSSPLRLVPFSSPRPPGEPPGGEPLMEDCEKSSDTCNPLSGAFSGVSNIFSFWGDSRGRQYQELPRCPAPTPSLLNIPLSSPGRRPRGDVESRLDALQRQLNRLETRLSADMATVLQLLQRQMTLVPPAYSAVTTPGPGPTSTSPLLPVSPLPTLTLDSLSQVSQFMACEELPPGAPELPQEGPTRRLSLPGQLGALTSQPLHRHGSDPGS
Experimental: as §5
PPB – Plasma Protein Binding
as §6

[5] = Single-dose pharmacokinetics (plasma and brain) in C57BL/6J mice; format: in vivo, mouse; settings: for Tolerability in single-dose pharmacokinetic studies: fasted male C57BL/6J mice, i.v. 4 mg/kg or oral 20 mg/kg; for bioavailability / Oral half-life: plasma; for bioavailability: oral, p.o. 20 mg/kg vs i.v. 4 mg/kg; for Oral half-life: p.o. 20 mg/kg
[6] = Human plasma protein binding
Experimental: as §5
PPB – Plasma Protein Binding
as §6

Mouse plasma stability = settings: % remaining at 2 hours
Experimental: as §5
PPB – Plasma Protein Binding
as §6

[7] = system: 6-OHDA Parkinson's mouse model; assay: 6-OHDA Parkinson's mouse model, oral gavage dose response (rotations, striatal dopamine); settings: for ED50: Mus musculus
Experimental: 6-hydroxydopamine (6-OHDA; Sigma) was dissolved in saline with 0.2% ascorbic acid to a final injected dose of 12 μg as previously described.[18]
Mice received analgesics and fluids and were placed on a heat pad until recovery.
D-amphetamine (2 mg/kg) was administered either 17 or 21 days post-6-OHDA; net ipsilateral turns over 10 min were recorded.
Striatal dopamine and metabolites were quantified by LC-MS/MS as previously described.[36]
(B) Amphetamine-induced ipsilateral rotations at Day 21, and (C–E) levels of striatal dopamine, 3,4-dihydroxyphenylacetic acid (DOPAC) and homovanillic acid (HVA) 28 days following saline or 6-OHDA injection. […] Data in B–E are presented as box-whisker plot with median (line), 25th to 75th percentiles (box) and full range (whiskers) shown. **P < 0.01, ***P < 0.001 by one-way ANOVA (two-tailed), and Dunnett’s post-test comparing to untreated 6-OHDA group.
administration to fasted 8–10-week-old C57BL/6J male mice was performed using an adapted method as previously described (30). At the relevant time point following dosing, blood samples were collected for plasma and the brain perfused with PBS for 5 min; CSF was also collected from separate groups of mice. Brain homogenates were prepared from dissected brains by homogenizing total brain (0.5 g) with four volumes (2 mL) of deionized water.
C57BL/6J mice were anaesthetized using ketamine hydrochloride (100 mg/kg) and xylazine (10 mg/kg), and were placed into a stereotactic frame with nose and ear bars specially adapted for mice. A digital stereotaxic instrument was used with a 5 μL Hamilton syringe to deliver either a sterile saline solution (0.9% sodium chloride) containing 0.2% ascorbic acid, 6-hydroxydopamine (6-OHDA; 12 μg) dissolved in saline containing 0.2% ascorbic acid, α-synuclein pre-formed fibrils (PFF-Syn; 8 μg in PBS), or PBS alone, into the right dorsal striatum of mice at the following stereotaxic coordinates relative to bregma (mm): -2.0 medial-lateral, + 0.5 anterior-posterior, -3.0 mm dorsal-ventral below the pial surface. After drilling a 1 mm burr-hole in the skull, a 2 μl volume of solution was infused at the target site at the rate of 0.5 μl per minute. The needle was held in place for at least 5 minutes after injection to minimize retrograde flow along the needle tract. Mice were given a subcutaneous injection of sterile Ringer ’s solution to help facilitate recovery and carprofen (5 mg/kg) for post-operative pain relief and were placed on a heat-pad until complete recovery from anaesthesia.
8-10 week-old C57BL/6J male mice were housed under a 12-hr light cycle in a SPF climate-controlled facility with food and water provided ad libitum for two weeks prior to study initiation.
mg/kg), or by drinking water (0.3mg/ml), with studies performed at UQ or by CROs. […]

AIM2 inflammasome = molecular target: T2, AIM2 inflammasome (Mus musculus, UniProt Q91VJ1); assay: AIM2 inflammasome activation by poly(dA:dT) in bone marrow macrophages; format: cell-based; settings: C57BL/6J bone marrow macrophages stimulated with poly(dA:dT); n=2
T2 construct: marrow cells were isolated from C57BL/6J mice and cultured macrophages stimulated with S; endogenous in cells; host or cells: bone-marrow-derived macrophages from C57BL/6J mice
T2 sequence (Q91VJ1 1-354): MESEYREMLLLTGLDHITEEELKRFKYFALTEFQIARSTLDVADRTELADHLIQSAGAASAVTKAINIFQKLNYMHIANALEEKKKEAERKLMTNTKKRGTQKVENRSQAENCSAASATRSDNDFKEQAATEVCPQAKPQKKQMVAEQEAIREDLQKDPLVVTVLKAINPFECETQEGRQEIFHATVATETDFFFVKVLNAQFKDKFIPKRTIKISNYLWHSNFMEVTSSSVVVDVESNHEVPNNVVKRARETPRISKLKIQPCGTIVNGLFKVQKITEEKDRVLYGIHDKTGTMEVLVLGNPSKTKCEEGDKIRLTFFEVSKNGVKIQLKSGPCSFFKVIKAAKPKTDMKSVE
Text: (§1) marrow cells were isolated from C57BL/6J mice and cultured macrophages stimulated with S.
(§2) typhimurium (S.typ) and poly(dA:dT) to activate [A] NLRC4 and [B] AIM2 inflammasomes. No […]

[8] = system: 6-OHDA Parkinson's mouse model; assay: 6-OHDA mouse model, PET/MRI imaging study with MCC7840 in drinking water; format: in vivo; settings: 0.3 mg/ml in drinking water
Experimental: (§3) The Supplementary material contains detailed treatment regimens.
(§4) Blood was collected in ethylenediaminetetraacetic acid (EDTA) tubes, plasma aliquoted and stored at −80°C. IL-1β was quantified by ELISA (R&D Systems). Extended methods are in the Supplementary material.
On Days 24–28 post-surgery, mice underwent PET/MRI with ^18F-DPA-714 (Day 24), ^18F-FBCTT (Day 26) and ^18F-FDOPA (Day 28) to assess microglial activation, dopamine transporter function and presynaptic dopamine synthesis, respectively. Standardized uptake value ratios (SUVRs) were calculated as ipsilateral/contralateral striatum ratios. Detailed acquisition and analysis methods are provided in the Supplementary material.
The microglial IC50 and IC90 values are shown with dotted lines. (B) Schematic of the 6-OHDA imaging study [created in BioRender. […] (C) Amphetamine-induced ipsilateral rotations at Day 17. (D–F) Structures of ^18F-DPA-714, ^18F-FBCTT and ^18F-FDOPA. […] (H) Time-activity curves for ^18F-DPA-714 generated from dynamic imaging and presented as standard uptake value ratio from ipsilateral to contralateral hemispheres (standardized uptake value ratio, SUV-ratios). The 60 min imaging time point is shown on the right. (I) Representative brain PET/MRI images and (J) quantitative SUV-ratios for ^18F-FBCTT. […] (K) Representative brain PET/MRI images and (L) quantitative SUV-ratios for ^18F-FDOPA. […] (M–O) MRI blood–brain barrier leakage measurement of gadolinium T1 relaxation time values in ipsilateral (M) and contralateral (N) hemispheres and expressed as a ratio (O). (P) Plasma IL-1β concentrations in mice at Day 28. […] SUV-BW = standard uptake value corrected for body weight.
To perform PET imaging, the same mouse was intravenously administered three radiotracers at sequential time points: ^18F-DPA-714 at Day 24 to label TSPO and neuroinflammation (Fig. 5D), ^18F-FBCTT at Day 26 to label dopamine transporter (DAT) availability (Fig. 5E)[42] and ^18F-FDOPA at Day 28 to label dopamine uptake (Fig. 5F),[43] following 6-OHDA or saline injection. At each time point, mice were anaesthetized and imaged using PET/MRI to visualize radiotracer uptake in the brains of living mice (Fig. 5B).
DOPA and F-rac-DOPA. Chiral HPLC method: Daicel Crownpak CR+ (4.0 × 150mm x 5µm, Part No. 27714), Flow rate = 0.8ml/min with 100% (perchloric acid pH 2.0).
PET/MRI imaging in the 6-OHDA model
Twenty-four days post-surgery, mice from each experimental group were injected with a radiotracer every second day in a group of 3-4 mice per imaging week. Three different radiotracers were used on three different days. [18F]DPA-714 (24th day post-surgery) was used to target the translocator protein, TSPO, overexpressed in activated microglia during neuroinflammation. […]

[9] = system: 95 targets (Eurofins Cerep panel); assay: Off-target screen, Eurofins Cerep panel (binding, enzyme and uptake assays); settings: 10uM
Experimental: (10uM) was screened for inhibition or activation activities at 95 targets (Eurofins Cerep panel) in
binding and enzyme and uptake assays. […]

PFF-Syn mouse model = assay: PFF-Syn Parkinson's disease mouse model, preventative and therapeutic dosing in drinking water; format: in vivo
Experimental: Recombinant human α-synuclein (rPeptide) was incubated in PBS at 37°C, 400 rpm, for 7 days with daily sonication cycle. Fibril formation was validated by transmission electron microscopy (TEM) and Thioflavin T fluorescence.[34],[35]
as §3, §4
Mice traversed a 0.5 cm × 1 m beam apparatus; latency to cross was measured at 4, 6, 8 and 10 months post-PFF-Syn.
Accelerated rotarod (5–40 rpm over 5 min) assessed latency to fall at 4, 6, 8 and 10 months post-PFF-Syn as previously described.[17],[18]
At 11 months post-PFF injection, mice were scanned with ^18F-DPA-714 PET/MRI. Regions of interest (ROIs) were anatomically defined in striatum using MRI guidance. SUVRs and T1 relaxation times were calculated. Extended imaging parameters are in the Supplementary material.
(A) Schematic of the PFF-Syn study [created in BioRender. […] (B–E) Rotarod and (F–I) balance-beam testing of mice at 4, 6, 8 and 10 months post PFF-Syn or saline injection (n = 8–10/group). […] (K) Time-activity curves for ^18F-DPA-714 generated from dynamic imaging and presented as standard uptake value ratio (SUV-ratio) from ipsilateral to contralateral hemispheres (n = 4–8/group). (L) Sixty minute SUV-ratio time point for data in L. (M) Representative autoradiography images for ^18F-DPA-714 from brain slices taken following PET imaging. (N) Quantitation of ^18F-DPA-714 autoradiography, and blockade of signal with PK11195. (O) Representative immunohistochemistry for microglial marker ionized calcium-binding adaptor molecule 1 (Iba1; green) from brain slices taken following PET imaging; cell nuclei 4′,6-diamidino-2-phenylindole (DAPI; blue). Square dotted line box in M represents approximate region imaged; magnification ×40, scale bars = 20 μm. (P) Ipsilateral striatal dopamine quantitation, and (Q) plasma interleukin (IL)-1β concentrations in mice after completion of PET imaging experiments (n = 4–8/group).

healthy subjects = system: healthy subjects; parameters: method as in NCT04015076; settings: randomized, double-blinded, placebo-controlled, single and multiple ascending dose, ref NCT04015076; cited from earlier work
NLRC4 inflammasome = molecular target: T3, NLRC4 inflammasome (Mus musculus, UniProt Q3UP24); assay: NLRC4 inflammasome activation by S. typhimurium in bone marrow macrophages; format: cell-based; settings: C57BL/6J bone marrow macrophages stimulated with S. typhimurium; n=2
T3 construct: marrow cells were isolated from C57BL/6J mice and cultured macrophages stimulated with S; endogenous in cells; host or cells: bone-marrow-derived macrophages from C57BL/6J mice
T3 sequence (Q3UP24 whole entry): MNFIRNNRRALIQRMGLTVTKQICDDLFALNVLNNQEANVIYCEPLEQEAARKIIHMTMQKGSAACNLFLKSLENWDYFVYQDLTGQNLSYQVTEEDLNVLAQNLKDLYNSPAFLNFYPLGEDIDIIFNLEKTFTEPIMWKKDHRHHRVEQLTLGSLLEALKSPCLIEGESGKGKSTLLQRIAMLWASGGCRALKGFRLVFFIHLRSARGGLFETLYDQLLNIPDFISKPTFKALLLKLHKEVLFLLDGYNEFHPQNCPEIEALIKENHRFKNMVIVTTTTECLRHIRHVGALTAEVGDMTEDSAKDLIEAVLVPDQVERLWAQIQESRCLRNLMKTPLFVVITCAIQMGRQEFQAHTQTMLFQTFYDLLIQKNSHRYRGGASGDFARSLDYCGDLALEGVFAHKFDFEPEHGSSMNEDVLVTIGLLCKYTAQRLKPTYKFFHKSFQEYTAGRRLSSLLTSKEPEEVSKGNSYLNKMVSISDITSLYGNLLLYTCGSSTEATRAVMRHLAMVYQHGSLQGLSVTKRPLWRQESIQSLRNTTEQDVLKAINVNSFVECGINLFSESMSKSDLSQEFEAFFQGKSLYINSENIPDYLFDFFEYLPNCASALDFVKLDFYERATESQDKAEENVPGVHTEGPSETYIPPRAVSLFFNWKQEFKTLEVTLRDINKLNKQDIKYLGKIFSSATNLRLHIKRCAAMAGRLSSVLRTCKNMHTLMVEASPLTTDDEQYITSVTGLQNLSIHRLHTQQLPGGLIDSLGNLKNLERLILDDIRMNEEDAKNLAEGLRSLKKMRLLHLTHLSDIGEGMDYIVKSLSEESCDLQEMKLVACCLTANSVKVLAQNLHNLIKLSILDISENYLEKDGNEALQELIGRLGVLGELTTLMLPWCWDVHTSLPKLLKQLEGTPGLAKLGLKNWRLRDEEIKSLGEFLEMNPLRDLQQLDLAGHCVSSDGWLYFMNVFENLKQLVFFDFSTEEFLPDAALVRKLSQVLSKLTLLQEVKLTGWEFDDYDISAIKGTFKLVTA
Text: as §1, §2

[10] = Mouse % PPB, plasma protein binding
[11] = 6, 8 and 10 months, both preventative and therapeutic groups

CYP3A4, sequence (P08684 whole entry): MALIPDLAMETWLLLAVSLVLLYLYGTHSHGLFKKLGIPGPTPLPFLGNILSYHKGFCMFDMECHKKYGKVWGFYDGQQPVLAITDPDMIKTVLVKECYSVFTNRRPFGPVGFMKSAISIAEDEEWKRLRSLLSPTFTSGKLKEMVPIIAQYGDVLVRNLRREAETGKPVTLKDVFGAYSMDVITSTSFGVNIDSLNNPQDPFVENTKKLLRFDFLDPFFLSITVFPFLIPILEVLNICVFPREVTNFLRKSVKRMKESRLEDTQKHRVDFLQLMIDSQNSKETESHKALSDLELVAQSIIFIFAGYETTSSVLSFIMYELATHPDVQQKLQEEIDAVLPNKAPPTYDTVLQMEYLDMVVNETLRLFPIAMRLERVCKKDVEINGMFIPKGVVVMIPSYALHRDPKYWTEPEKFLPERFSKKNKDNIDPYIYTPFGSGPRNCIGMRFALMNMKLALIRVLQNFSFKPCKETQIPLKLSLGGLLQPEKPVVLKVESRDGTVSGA
CYP2D6, sequence (P10635 whole entry): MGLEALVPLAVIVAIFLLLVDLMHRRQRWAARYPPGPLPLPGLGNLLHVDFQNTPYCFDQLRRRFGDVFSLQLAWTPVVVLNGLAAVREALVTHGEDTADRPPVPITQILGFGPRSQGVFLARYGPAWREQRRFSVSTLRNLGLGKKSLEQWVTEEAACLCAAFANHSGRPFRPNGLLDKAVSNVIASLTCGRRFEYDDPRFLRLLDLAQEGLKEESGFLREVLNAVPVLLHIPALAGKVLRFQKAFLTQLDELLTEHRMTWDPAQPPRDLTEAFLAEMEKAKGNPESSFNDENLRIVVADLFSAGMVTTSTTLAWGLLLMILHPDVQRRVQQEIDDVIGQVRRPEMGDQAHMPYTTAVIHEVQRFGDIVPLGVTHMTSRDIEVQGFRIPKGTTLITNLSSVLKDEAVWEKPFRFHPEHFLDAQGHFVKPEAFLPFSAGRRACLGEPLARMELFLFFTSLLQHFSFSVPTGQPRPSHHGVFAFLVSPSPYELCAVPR

Structure (SMILES): CC(C)(O)c1coc(S(=O)(=O)NC(=O)Nc2c3c(cc4c2CCC4)CCC3)c1 [MCC950, reference compound]
- IC50 (CYP3A4): > 50 µM
- half-life [1]: > 145 min
- IC50 (CYP2D6): > 50 µM
- half-life [2]: > 145 min
- IC50 (CYP2C9): 43 µM
- IC50 (CYP1A2): 20 µM
- Human % PS (Human plasma stability): 96%
- fraction unbound [3, 10]: 0.006
- inhibition at 30 µM [4]: 21 ± 4.3%
- Tolerability in single-dose pharmacokinetic studies [5]: well tolerated
- bioavailability ([5]; male, C57BL/6J, mouse, mice): 71%
- Oral half-life ([5]; mice): 2.4 h
- fraction unbound [6]: 0.005
- Mouse % PS (Mouse plasma stability): 99%

Structure (SMILES): CC(C)n1ccc(S(=O)(=O)NC(=O)Nc2c3c(cc4c2CCC4)CCC3)n1 [MCC7840]
- IC50 (CYP3A4): > 50 µM
- half-life [1]: > 145 min
- ED50 ([7]; read-out: ED50 for dopamine loss (striatal dopamine content)): ~2.2 mg/kg
- ED50 ([7]; read-out: ED50 for motor behaviour (amphetamine-induced ipsilateral rotations)): ~0.9 mg/kg
- Amphetamine-induced rotations ([7]; all doses (1, 3, 10 mg/kg p.o. daily), Day 21): significantly reduced
- Striatal dopamine and its metabolites DOPAC and HVA ([7]; all treatment groups (1, 3, 10 mg/kg p.o. daily), Day 28): significant preservation
- IC50 (CYP2D6): > 50 µM
- half-life [2]: > 145 min
- Inhibitory activity at AIM2 inflammasome (AIM2 inflammasome): not active
- IC50 (CYP2C9): 46 µM
- Gadolinium T1 relaxation time decrease (blood-brain barrier leakage) [8]: absent
- Loss of 18F-FBCTT signal (DAT) ([8]; Day 26): significant, but not complete protection
- 6-OHDA-induced increase in plasma IL-1β ([8]; Day 28): effectively suppressed
- Reduced ipsilateral 18F-FDOPA signal (dopamine uptake) ([8]; Day 28): significantly protected
- IC50 (CYP1A2): 19 µM
- Human % PS (Human plasma stability): 100%
- fraction unbound [3, 10]: 0.005
- fraction unbound ([3]; Plasma protein binding, stated in text with mouse pharmacokinetics): < 0.01
- Inhibition or activation activity at any of 95 off-targets [9]: ≤ 35%
- Rotarod motor deficit (PFF-Syn mouse model; 4 months post-injection, preventative (pre-PFF) group, 0.3 mg/ml drinking water): significantly attenuated
- Balance beam crossing latency (PFF-Syn mouse model; 4 months, pre-treated mice): significantly reduced
- Balance beam performance (PFF-Syn mouse model; [11]): improved balance beam performance
- Rotarod progressive motor decline (PFF-Syn mouse model; [11]): significantly protected
- Striatal dopamine loss and reduced metabolite levels (PFF-Syn mouse model; both dosing regimens, after PET imaging): significantly protected
- 18F-DPA-714 PET signal (PFF-Syn mouse model; both preventative and therapeutic groups, PET/MRI at 12 months (11 months in methods)): significantly reduced
- PFF-Syn-induced plasma IL-1β increase (PFF-Syn mouse model; preventative group): fully suppressed
- Reduction of PFF-Syn-induced plasma IL-1β (PFF-Syn mouse model; therapeutic group (from 4 months post-PFF)): ~70%
- Safety, tolerability and pharmacokinetics in Phase I (healthy subjects): excellent safety, tolerability and pharmacokinetic profile
- inhibition at 30 µM [4]: 4.5 ± 3.1%
- Tolerability in single-dose pharmacokinetic studies [5]: well tolerated
- bioavailability ([5]; male, C57BL/6J, mouse, mice): 68%
- Kp at 2 h ([5]; male, C57BL/6J, mouse, mice, oral administration 20 mg/kg, total brain concentration, read-out: Brain-to-plasma ratio): ~0.035
- Oral half-life ([5]; mice): 5.0 h
- Inhibitory activity at NLRC4 inflammasome (NLRC4 inflammasome): not active
- fraction unbound [6]: 0.003
- Mouse % PS (Mouse plasma stability): 89%
